Data published in EP0090603A2, “Antibacterial compounds” (BEECHAM GROUP PLC, priority 1982, dated 1983).
≈ marks a conversion by molar mass, not a printed value.

Experiments:
Format in all cases: cell-based
[1] = tested on: M. suipneumoniae J2206/183^b; experiment: MIC against Mycoplasma, in vitro agar dilution; conditions: Friis broth solidified with 0.9% agarose, 10^3 to 10^5 C.F.U., 6 days at 37°C; for MIC: Mesomycoplasma hyopneumoniae, 144 h, read-out: MIC's against M. suipneumoniae J2206/183^b
[2] = tested on: M. gallisepticum S6; experiment: MIC against Mycoplasma, in vitro agar dilution; conditions: Friis broth solidified with 0.9% agarose, 10^3 to 10^5 C.F.U., 6 days at 37°C; for MIC: Mycoplasmoides gallisepticum, S6, 144 h, read-out: MIC's against M. gallisepticum S6
[3] = tested on: M. bovigenitalium ATCC 14173; experiment: MIC against Mycoplasma, in vitro agar dilution; conditions: Friis broth solidified with 0.9% agarose, 10^3 to 10^5 C.F.U., 6 days at 37°C; for MIC: 144 h, read-out: MIC's against M. bovigenitalium ATCC 14173
[4] = tested on: M. hyosynoviae ATCC 25591; experiment: MIC against Mycoplasma, in vitro agar dilution; conditions: Friis broth solidified with 0.9% agarose, 10^3 to 10^5 C.F.U., 6 days at 37°C; for MIC: 144 h, read-out: MIC's against M. hyosynoviae ATCC 25591
[5] = tested on: M. suipneumoniae PW/C/210; experiment: MIC against Mycoplasma, in vitro agar dilution; conditions: Friis broth solidified with 0.9% agarose, 10^3 to 10^5 C.F.U., 6 days at 37°C; for MIC: Mesomycoplasma hyopneumoniae, 144 h, read-out: MIC's against M. suipneumoniae PW/C/210
[6] = tested on: M. suipneumoniae LABER; experiment: MIC against Mycoplasma, in vitro agar dilution; conditions: Friis broth solidified with 0.9% agarose, 10^3 to 10^5 C.F.U., 6 days at 37°C; for MIC: Mesomycoplasma hyopneumoniae, 144 h, read-out: MIC's against M. suipneumoniae LABER
[7] = tested on: M. suipneumoniae NB12; experiment: MIC against Mycoplasma, in vitro agar dilution; conditions: Friis broth solidified with 0.9% agarose, 10^3 to 10^5 C.F.U., 6 days at 37°C; for MIC: Mesomycoplasma hyopneumoniae, NB12, 144 h, read-out: MIC's against M. suipneumoniae NB12
[8] = tested on: M. suipneumoniae NCTC 10110; experiment: MIC against Mycoplasma, in vitro agar dilution; conditions: Friis broth solidified with 0.9% agarose, 10^3 to 10^5 C.F.U., 6 days at 37°C; for MIC: Mesomycoplasma hyopneumoniae, NCTC10110, 144 h, read-out: MIC's against M. suipneumoniae NCTC 10110
[9] = tested on: M. pneumoniae ATCC 15492; experiment: MIC against Mycoplasma, in vitro agar dilution; conditions: Friis broth solidified with 0.9% agarose, 10^3 to 10^5 C.F.U., 6 days at 37°C; for MIC: Mycoplasmoides pneumoniae, ATCC15492, 144 h, read-out: MIC's against M. pneumoniae ATCC 15492
[10] = tested on: M. bovis NCTC 10131; experiment: microbe, parasite or virus in culture; conditions: for MIC: NCTC10131, 144 h, read-out: MIC's against M. bovis NCTC 10131; for MIC's against M. bovis NCTC 10131: Friis broth solidified with 0.9% agarose, 10^3 to 10^5 C.F.U., 6 days at 37°C
[11] = tested on: M. hyorhinis ATCC 23234; experiment: MIC against Mycoplasma, in vitro agar dilution; conditions: Friis broth solidified with 0.9% agarose, 10^3 to 10^5 C.F.U., 6 days at 37°C; for MIC: Mesomycoplasma hyorhinis, ATCC23234, 144 h, read-out: MIC's against M. hyorhinis ATCC 23234
[12] = tested on: M. suipneumoniae ATCC 25095; experiment: MIC against Mycoplasma, in vitro agar dilution; conditions: Friis broth solidified with 0.9% agarose, 10^3 to 10^5 C.F.U., 6 days at 37°C; for MIC: Mesomycoplasma hyopneumoniae, ATCC25095, 144 h, read-out: MIC's against M. suipneumoniae ATCC 25095
[13] = tested on: M. suipneumoniae MS 16; experiment: MIC against Mycoplasma, in vitro agar dilution; conditions: Friis broth solidified with 0.9% agarose, 10^3 to 10^5 C.F.U., 6 days at 37°C; for MIC: Mesomycoplasma hyopneumoniae, MS16, 144 h, read-out: MIC's against M. suipneumoniae MS 16
[14] = tested on: M. suipneumoniae UCD 1; experiment: MIC against Mycoplasma, in vitro agar dilution; conditions: Friis broth solidified with 0.9% agarose, 10^3 to 10^5 C.F.U., 6 days at 37°C; for MIC: Mesomycoplasma hyopneumoniae, UCD1, 144 h, read-out: MIC's against M. suipneumoniae UCD 1
[15] = tested on: M. suipneumoniae HK(2); experiment: MIC against Mycoplasma, in vitro agar dilution; conditions: Friis broth solidified with 0.9% agarose, 10^3 to 10^5 C.F.U., 6 days at 37°C; for MIC: Mesomycoplasma hyopneumoniae, 144 h, read-out: MIC's against M. suipneumoniae HK(2)
[16] = tested on: M. suipneumoniae JF 435; experiment: MIC against Mycoplasma, in vitro agar dilution; conditions: Friis broth solidified with 0.9% agarose, 10^3 to 10^5 C.F.U., 6 days at 37°C; for MIC: Mesomycoplasma hyopneumoniae, JF435, 144 h, read-out: MIC's against M. suipneumoniae JF 435
[17] = tested on: M. hyorhinis ATCC 25021; experiment: MIC against Mycoplasma, in vitro agar dilution; conditions: Friis broth solidified with 0.9% agarose, 10^3 to 10^5 C.F.U., 6 days at 37°C; for MIC: Mesomycoplasma hyorhinis, ATCC25021, 144 h, read-out: MIC's against M. hyorhinis ATCC 25021
[18] = tested on: M. suipneumoniae TAM 6N; experiment: MIC against Mycoplasma, in vitro agar dilution; conditions: Friis broth solidified with 0.9% agarose, 10^3 to 10^5 C.F.U., 6 days at 37°C; for MIC: Mesomycoplasma hyopneumoniae, TAM6N, 144 h, read-out: MIC's against M. suipneumoniae TAM 6N
[19] = tested on: M. dispar NCTC 10125; experiment: MIC against Mycoplasma, in vitro agar dilution; conditions: Friis broth solidified with 0.9% agarose, 10^3 to 10^5 C.F.U., 6 days at 37°C; for MIC: 144 h, read-out: MIC's against M. dispar NCTC 10125
[20] = tested on: M. suipneumoniae Str. 11; experiment: MIC against Mycoplasma, in vitro agar dilution; conditions: Friis broth solidified with 0.9% agarose, 10^3 to 10^5 C.F.U., 6 days at 37°C; for MIC: Mesomycoplasma hyopneumoniae, STR.11, 144 h, read-out: MIC's against M. suipneumoniae Str. 11

Row | Compound | MIC [1] [µg/mL] | MIC [2] [µg/mL] | MIC [3] [µg/mL] | MIC [4] [µg/mL] | MIC [5] [µg/mL] | MIC [6] [µg/mL] | MIC [7] [µg/mL] | MIC [8] [µg/mL] | MIC [9] [µg/mL] | MIC [10] [µg/mL] | MIC [11] [µg/mL] | MIC [12] [µg/mL] | MIC [13] [µg/mL] | MIC [14] [µg/mL] | MIC [15] [µg/mL] | MIC [16] [µg/mL] | MIC [17] [µg/mL] | MIC [18] [µg/mL] | MIC [19] [µg/mL] | MIC [20] [µg/mL] | also measured
1 | CC(CC1OCC(CC2OC2C(C)C(C)O)C(O)C1O)=C(C)C(=O)OCc1cc(C)no1 (stereo not shown) [Example 14, 3-Methyl-5-isoxazolylmethyl 2-methylmonate A] | 0.5 (≈ 1.1 µM) | 1 (≈ 2.2 µM) | 0.025 (≈ 0.0551 µM) | 0.1 (≈ 0.22 µM) | 0.25 (≈ 0.551 µM) | 0.25 (≈ 0.551 µM) | 0.5 (≈ 1.1 µM) | 0.5 (≈ 1.1 µM) | 1 (≈ 2.2 µM) | ≤ 0.01 | 0.25 (≈ 0.551 µM) | 0.5 (≈ 1.1 µM) | 0.25 (≈ 0.551 µM) | 0.5 (≈ 1.1 µM) | 0.5 (≈ 1.1 µM) | 0.5 (≈ 1.1 µM) | 0.25 (≈ 0.551 µM) | 1 (≈ 2.2 µM) | 0.1 (≈ 0.22 µM) | 0.25 (≈ 0.551 µM) | 
2 | CC(CC1OCC(CC2OC2C(C)C(C)O)C(O)C1O)=C(C)C(=O)OCc1ccc(Br)cc1 (stereo not shown) [Example 12, 4-Bromobenzyl 2-methylmonate A] | 10 (≈ 19 µM) | > 10 | 0.25 (≈ 0.474 µM) | 2.5 (≈ 4.74 µM) | 5 (≈ 9.48 µM) | 5 (≈ 9.48 µM) | 5 (≈ 9.48 µM) | 10 (≈ 19 µM) | 10 (≈ 19 µM) | 0.1 (≈ 0.19 µM) | 2.5 (≈ 4.74 µM) | 5 (≈ 9.48 µM) | 5 (≈ 9.48 µM) | 10 (≈ 19 µM) | 10 (≈ 19 µM) | 10 (≈ 19 µM) | 2.5 (≈ 4.74 µM) | 10 (≈ 19 µM) | 2.5 (≈ 4.74 µM) | 5 (≈ 9.48 µM) | 
3 | CC(CC1OCC(CC2OC2C(C)C(C)O)C(O)C1O)=C(C)C(=O)OCCCCCCCCC(=O)O [Example 7, Sodium 9-[4-(5S-(2S,3S-epoxy-5S-hydroxy-4S-methylhexyl) -3R,4R-dihdroxytetrahydroxyran-2S-yl)-2,3-dimethylbut-2(E)-enoyloxy]nonanoate] | > 10 | > 10 | 0.5 | 1 | 5 | 5 | 10 | 10 | > 10 | 0.05 | 2.5 | 10 | 5 | > 10 | > 10 | > 10 | 2.5 | > 10 | 2.5 | 5 | 
4 | 4-(Methylthio)benzyl 2-methylmonate [Example 11] |  |  |  |  |  |  |  |  |  |  |  |  |  |  |  |  |  |  |  |  | MIC's against M. suipneumoniae J2206/183^b [1]: 2.5 µg/mL; MIC's against M. gallisepticum S6 [2]: 10 µg/mL; MIC's against M. bovigenitalium ATCC 14173 [3]: 0.1 µg/mL; MIC's against M. hyosynoviae ATCC 25591 [4]: 0.25 µg/mL; MIC's against M. suipneumoniae PW/C/210 [5]: 1.0 µg/mL; MIC's against M. suipneumoniae LABER [6]: 1.0 µg/mL; MIC's against M. suipneumoniae NB12 [7]: 1.0 µg/mL; MIC's against M. suipneumoniae NCTC 10110 [8]: 2.5 µg/mL; MIC's against M. pneumoniae ATCC 15492 [9]: 5.0 µg/mL; MIC's against M. bovis NCTC 10131 [10]: 0.05 µg/mL; MIC's against M. hyorhinis ATCC 23234 [11]: 1.0 µg/mL; MIC's against M. suipneumoniae ATCC 25095 [12]: 2.5 µg/mL; MIC's against M. suipneumoniae MS 16 [13]: 1.0 µg/mL; MIC's against M. suipneumoniae UCD 1 [14]: 2.5 µg/mL; MIC's against M. suipneumoniae HK(2) [15]: 2.5 µg/mL; MIC's against M. suipneumoniae JF 435 [16]: 2.5 µg/mL; MIC's against M. hyorhinis ATCC 25021 [17]: 0.5 µg/mL; MIC's against M. suipneumoniae TAM 6N [18]: 2.5 µg/mL; MIC's against M. dispar NCTC 10125 [19]: 0.5 µg/mL; MIC's against M. suipneumoniae Str. 11 [20]: 1.0 µg/mL
5 | 8-Hydroxyoctyl 2-methylmonate A [Example 13] |  |  |  |  |  |  |  |  |  |  |  |  |  |  |  |  |  |  |  |  | MIC's against M. suipneumoniae J2206/183^b [1]: 1.0 µg/mL; MIC's against M. gallisepticum S6 [2]: 5.0 µg/mL; MIC's against M. bovigenitalium ATCC 14173 [3]: 0.05 µg/mL; MIC's against M. hyosynoviae ATCC 25591 [4]: 0.1 µg/mL; MIC's against M. suipneumoniae PW/C/210 [5]: 0.5 µg/mL; MIC's against M. suipneumoniae LABER [6]: 0.5 µg/mL; MIC's against M. suipneumoniae NB12 [7]: 1.0 µg/mL; MIC's against M. suipneumoniae NCTC 10110 [8]: 1.0 µg/mL; MIC's against M. pneumoniae ATCC 15492 [9]: 1.0 µg/mL; MIC's against M. bovis NCTC 10131 [10]: ≤0.01 µg/mL; MIC's against M. hyorhinis ATCC 23234 [11]: 0.5 µg/mL; MIC's against M. suipneumoniae ATCC 25095 [12]: 0.5 µg/mL; MIC's against M. suipneumoniae MS 16 [13]: 0.5 µg/mL; MIC's against M. suipneumoniae UCD 1 [14]: 1.0 µg/mL; MIC's against M. suipneumoniae HK(2) [15]: 1.0 µg/mL; MIC's against M. suipneumoniae JF 435 [16]: 1.0 µg/mL; MIC's against M. hyorhinis ATCC 25021 [17]: 0.5 µg/mL; MIC's against M. suipneumoniae TAM 6N [18]: 1.0 µg/mL; MIC's against M. dispar NCTC 10125 [19]: 0.1 µg/mL; MIC's against M. suipneumoniae Str. 11 [20]: 0.5 µg/mL
